Reference: patent US20240358692A1, “TREATMENT OF SCLERODERMA” (Aisa Pharma, Inc., priority 2023, published 2024)

Tested on: participants with SSc-RP
Assay: SHAQ - Standard Disability Index
Format: in vivo, human
Design: key to SHAQ Standard Disability Index, In-Clinic Visit (Day 12), Mean / SHAQ Standard Disability Index, In-Clinic Visit (Day 12), Median / SHAQ Standard Disability Index, Day 12, Mean / SHAQ Standard Disability Index, Day 12, Median: 0 = without any difficulty to 3 = unable to do
Details: for % change in Standard Disability Index: SHAQ, mITT Part A
Text: The standard, validated, patient reported outcome measures tool for SSc patients, the Scleroderma Health Assessment Questionnaire (SHAQ), will be used to assess the participant qualify of life. Details are attached in the Appendix. The participant quality of life will be scored, and a disability index calculated for each questionnaire completed by the patient at Screening and each in-clinic visit. The absolute change in participant quality of life from baseline to the end of each dosing period will be calculated similar to frequency data as before.
The SHAQ is used to calculate a Disability Index to assess the participant qualify of life. The eight categories assessed by the Disability Index are 1) dressing and grooming, 2) arising, 3) eating, 4) walking, 5) hygiene, 6) reach, 7) grip, and 8) common daily activities. For each of these categories, patients report the amount of difficulty they have in performing two or three specific activities.
There are four possible responses for the Disability Index questions: • Without any difficulty=0 • With some difficulty=1 • With much difficulty=2 • Unable to do=3 • The highest score reported by the patient for any component question of the eight categories determines the score for that category. • If a component question is left blank or the response is too ambiguous to assign a score, then the score for that category is determined by the remaining completed question(s). • If all component questions are blank or if more than one answer is given, then follow up with the respondent is required. • If the respondent's mark is between the response columns, then move it to the closest one. If it's directly between the two, move it to the higher one.
This question results in a new set of category scores that are computed by adjusting the score for each category, if necessary, based on the patient's use of an aid or device or assistance for that category. If either devices and/or help from another person are checked for a category, the score is set to “2”, unless the score is already “3” (i.e., scores of “0” or “1” are increased to “2”). For example, if the highest score for the dressing category is “1”, and the patient says they use a device for dressing, the computed category score would be “2”. The sum of the computed categories scores is then calculated and divided by the number of categories answered. This gives a score in the 0 to 3 range.

[1] = Any Cilnidipine (N = 17), Day 12, PP Population, Part A
[2] = Cilnidipine 10 mg, SSc patients, PP, Part A
[3] = Cilnidipine 20 mg (N = 3), Day 12, Patients with Diagnosis of SSc, Modified ITT Population - Part A
[4] = Cilnidipine 20 mg, SSc patients, PP, Part A
[5] = Pooled Cilnidipine 20 mg and Cilnidipine 20 mg + Tadalafil 5 mg (N = 8), Day 12, PP Population, Part A
[6] = Pooled Cilnidipine (N = 8), Day 12, PP Population, Part A
[7] = pooled Cilnidipine 10 mg and Cilnidipine 10 mg + Tadalafil 5 mg
[8] = pooled Cilnidipine 20 mg and Cilnidipine 20 mg + Tadalafil 5 mg
[9] = pooled cilnidipine 10 mg and 20 mg arms (combination: + tadalafil 5 mg)
[10] = Tadalafil 5 mg, Day 12, PP Population Part A, sensitivity analysis
[11] = Tadalafil 5 mg, SSc patients, PP, Part A

## COCCOC(=O)C1=C(C)NC(C)=C(C(=O)OC/C=C/c2ccccc2)C1c1cccc([N+](=O)[O-])c1 (stereo not shown) [Cilnidipine]
[1]
  SHAQ Standard Disability Index, Change from Baseline, Mean (SD): −0.041 (0.1990)
  SHAQ Standard Disability Index, Change from Baseline, Median: 0.000
  SHAQ Standard Disability Index, Percent Change from Baseline, Median: 0.00%
Cilnidipine 10 mg (N = 3), Patients with Diagnosis of SSc, Modified ITT Population - Part A
  SHAQ Standard Disability Index, In-Clinic Visit (Day 12), Median: 1.125
[2]
  SHAQ Standard Disability Index, Change from Baseline, Max: 0.00
  SHAQ Standard Disability Index, Change from Baseline, Min: 0.00,
  SHAQ Standard Disability Index, Change from Baseline, Q1: 0.000,
  SHAQ Standard Disability Index, Change from Baseline, Q3: 0.000
  SHAQ Standard Disability Index, Day 12, Max: 1.50
  SHAQ Standard Disability Index, Day 12, Mean: 0.656
  SHAQ Standard Disability Index, Day 12, Median: 0.563
  SHAQ Standard Disability Index, Day 12, Min: 0.00,
  SHAQ Standard Disability Index, Day 12, Q1: 0.000,
  SHAQ Standard Disability Index, Day 12, Q3: 1.313
  SHAQ Standard Disability Index, Percent Change from Baseline, Max: 0.0
  SHAQ Standard Disability Index, Percent Change from Baseline, Min: 0.0,
  SHAQ Standard Disability Index, Percent Change from Baseline, Q1: 0.00,
  SHAQ Standard Disability Index, Percent Change from Baseline, Q3: 0.00
[3]
  SHAQ Standard Disability Index, Change from Baseline, Mean: −0.125
  SHAQ Standard Disability Index, Change from Baseline, Median: −0.125
  SHAQ Standard Disability Index, Percent Change from Baseline, Mean: −50.00%
  SHAQ Standard Disability Index, Percent Change from Baseline, Median: −50.00%
Cilnidipine 20 mg (N = 3), Patients with Diagnosis of SSc, Modified ITT Population - Part A
  SHAQ Standard Disability Index, In-Clinic Visit (Day 12), Mean: 0.125
Cilnidipine 20 mg (n = 3)
  % change in Standard Disability Index: −50%
[4]
  SHAQ Standard Disability Index, Change from Baseline, Max: 0.13
  SHAQ Standard Disability Index, Change from Baseline, Mean: −0.063
  SHAQ Standard Disability Index, Change from Baseline, Median: −0.063
  SHAQ Standard Disability Index, Change from Baseline, Min: −0.25,
  SHAQ Standard Disability Index, Change from Baseline, Q1: −0.188,
  SHAQ Standard Disability Index, Change from Baseline, Q3: 0.063
  SHAQ Standard Disability Index, Day 12, Max: 0.75
  SHAQ Standard Disability Index, Day 12, Mean: 0.281
  SHAQ Standard Disability Index, Day 12, Median: 0.188
  SHAQ Standard Disability Index, Day 12, Min: 0.00,
  SHAQ Standard Disability Index, Day 12, Q1: 0.063,
  SHAQ Standard Disability Index, Day 12, Q3: 0.500
  SHAQ Standard Disability Index, Percent Change from Baseline, Max: 20.0
  SHAQ Standard Disability Index, Percent Change from Baseline, Mean: −26.67
  SHAQ Standard Disability Index, Percent Change from Baseline, Min: −66.7,
  SHAQ Standard Disability Index, Percent Change from Baseline, Q1: −66.67,
  SHAQ Standard Disability Index, Percent Change from Baseline, Q3: 20.00
[5]
  SHAQ Standard Disability Index, Change from Baseline, Mean: −0.065
  SHAQ Standard Disability Index, Change from Baseline, Median: 0.000
[6]
  SHAQ Standard Disability Index, Change from Baseline, Mean (SD): −0.031 (0.1108)
  SHAQ Standard Disability Index, In-Clinic Visit (Day 12), Mean (SD): 0.469 (0.5853)
  SHAQ Standard Disability Index, Percent Change from Baseline, Mean (SD): −16.00 (34.189) %
Pooled Cilnidipine (n = 7)
  % change in Standard Disability Index: −25%
Pooled cilnidipine (n=4)
  % Δ from baseline, standard disability mean: −25%
[7]
  Standard Disability Index Change from Baseline Max: 0.38
  Standard Disability Index Change from Baseline Mean: −0.021
  Standard Disability Index Change from Baseline Median: 0.000
  Standard Disability Index Change from Baseline Min: −0.31,
  Standard Disability Index Change from Baseline Q3: 0.000
  Standard Disability Index Day 12 Max: 1.50
  Standard Disability Index Day 12 Min: 0.00,
  Standard Disability Index Day 12 Q1: 0.188,
  Standard Disability Index Day 12 Q3: 1.125
  Standard Disability Index Percent Change from Baseline Max: 150.0%
  Standard Disability Index Percent Change from Baseline Mean: 7.50%
  Standard Disability Index Percent Change from Baseline Median: 0.00%
  Standard Disability Index Percent Change from Baseline Min: −62.5, %
  Standard Disability Index Percent Change from Baseline Q1: −25.00, %
  Standard Disability Index Percent Change from Baseline Q3: 0.00%
[8]
  Standard Disability Index Change from Baseline Max: 0.13
  Standard Disability Index Change from Baseline Mean: −0.092
  Standard Disability Index Change from Baseline Median: 0.000
  Standard Disability Index Change from Baseline Min: −0.52,
  Standard Disability Index Change from Baseline Q1: −0.250,
  Standard Disability Index Day 12 Max: 1.75
  Standard Disability Index Day 12 Median: 0.250
  Standard Disability Index Day 12 Min: 0.00,
  Standard Disability Index Day 12 Q1: 0.000,
  Standard Disability Index Day 12 Q3: 0.857
  Standard Disability Index Percent Change from Baseline Max: 100.0%
  Standard Disability Index Percent Change from Baseline Median: −33.33%
  Standard Disability Index Percent Change from Baseline Min: −66.7, %
  Standard Disability Index Percent Change from Baseline Q1: −37.66, %
  Standard Disability Index Percent Change from Baseline Q3: 7.69%
[9]
  Standard Disability Index Change from Baseline Max: 0.00
  Standard Disability Index Change from Baseline Mean: −0.054
  Standard Disability Index Change from Baseline Median: 0.000
  Standard Disability Index Change from Baseline Min: −0.25,
  Standard Disability Index Change from Baseline Q3: 0.000
  Standard Disability Index Day 12 Max: 1.50
  Standard Disability Index Day 12 Median: 0.125
  Standard Disability Index Day 12 Min: 0.00,
  Standard Disability Index Day 12 Q1: 0.000,
  Standard Disability Index Percent Change from Baseline Max: 0.0%
  Standard Disability Index Percent Change from Baseline Mean: −25.00%
  Standard Disability Index Percent Change from Baseline Min: −66.7, %
  Standard Disability Index Percent Change from Baseline Q1: −50.00, %
  Standard Disability Index Percent Change from Baseline Q3: 0.00%

## CN1CC(=O)N2[C@H](c3ccc4c(c3)OCO4)c3[nH]c4ccccc4c3C[C@@H]2C1=O [Tadalafil]
[10]
  SHAQ Standard Disability Index, In-Clinic Visit (Day 12), Mean: 0.531
  SHAQ Standard Disability Index, In-Clinic Visit (Day 12), Median: 0.563
[11]
  SHAQ Standard Disability Index, Change from Baseline, Max: 0.00
  SHAQ Standard Disability Index, Change from Baseline, Min: −0.13,
  SHAQ Standard Disability Index, Change from Baseline, Q1: −0.125,
  SHAQ Standard Disability Index, Change from Baseline, Q3: 0.000
  SHAQ Standard Disability Index, Day 12, Max: 1.00
  SHAQ Standard Disability Index, Day 12, Min: 0.00,
  SHAQ Standard Disability Index, Day 12, Q1: 0.250,
  SHAQ Standard Disability Index, Day 12, Q3: 0.813
  SHAQ Standard Disability Index, Percent Change from Baseline, Max: 0.0
  SHAQ Standard Disability Index, Percent Change from Baseline, Min: −16.7,
  SHAQ Standard Disability Index, Percent Change from Baseline, Q1: −16.67,
  SHAQ Standard Disability Index, Percent Change from Baseline, Q3: 0.00
